From patent US20020045668A1, “Compositions for sustained release of analgesic agents, and methods of making and using the same” (priority 2000, published 2002)

Key:
[1] = cited from earlier work
[2] = data not shown

Compound | Solubility in Organic Solvents [1] | T80% (time required for 80% of lidocaine to be released) [2]
CC(C)CCC[C@@H](C)[C@H]1CC[C@H]2[C@@H]3CC=C4C[C@@H](O)CC[C@]4(C)[C@H]3CC[C@]12C [Cholesterol] | 1 in 4.5 chloroform | –
CCCCC(CC)COC(=O)CC(C(=O)OCC(CC)CCCC)S(=O)(=O)O (stereo not drawn) [Docusate] | 1 in 1 | –
OC[C@@H](O)[C@@H](O)[C@H](O)[C@H](O)CO [Mannitol] | Practically insoluble | –
O=C1NS(=O)(=O)c2ccccc21 [Saccharin] | Slightly soluble | –
C/C=C/C=C/C(=O)O [Sorbic acid] | 1 in 15 chloroform | –
CCN(CC)CC(=O)Nc1c(C)cccc1C [pure lidocaine, lidocaine] | – | less than 30 minutes
